Laboratory results taken from the NIST ThermoML archive (doi:10.1021/je800571y).

Assay: xn = mol fraction of the nth substance listed
Conditions: 101 kPa, Liquid

CCC(C)(C)O [2-methylbutan-2-ol] + CCC(C)=O
Conditions	mass density, 293.15 K [kg/m3]	mass density, 298.15 K [kg/m3]	mass density, 303.15 K [kg/m3]	mass density, 308.15 K [kg/m3]	mass density, 313.15 K [kg/m3]	viscosity, 293.15 K [mPa·s]	viscosity, 298.15 K [mPa·s]	viscosity, 303.15 K [mPa·s]	viscosity, 308.15 K [mPa·s]	viscosity, 313.15 K [mPa·s]
x2 = 0	809.61	805.01	800.41	795.81	791.21	5.108	4.474	3.909	3.387	2.909
x2 = 0.0803	809.22	804.57	799.94	795.3	790.63	3.81	3.35	2.9	2.521	2.26
x2 = 0.1583	808.84	804.15	799.49	794.82	790.09	2.862	2.521	2.14	1.905	1.7
x2 = 0.2341	808.48	803.74	799.06	794.36	789.57	2.105	1.85	1.53	1.421	1.287
x2 = 0.3077	808.13	803.35	798.85	793.92	789.06	1.558	1.37	1.09	1.103	0.9819
x2 = 0.3794	807.79	802.97	798.25	793.49	788.57	1.15	1.054	–	0.84	0.7418
x2 = 0.449	807.47	802.6	797.86	793.07	788.09	0.842	0.8221	0.6863	0.7188	0.5869
x2 = 0.5168	807.16	802.24	797.48	792.67	787.63	0.6725	0.6579	0.5601	0.5865	0.4801
x2 = 0.5828	806.85	801.89	796.12	792.27	787.18	0.5515	0.5913	0.5201	0.5202	0.4017
x2 = 0.6471	806.56	801.56	796.77	791.89	786.74	0.4986	0.5219	0.52	0.4801	0.3511
x2 = 0.7097	806.27	801.23	796.43	791.52	786.32	0.4935	0.4894	0.48	0.4507	–
x2 = 0.7707	805.99	800.91	796.08	791.15	785.9	0.4482	0.4437	0.4801	0.4505	0.323
x2 = 0.8302	805.71	800.6	795.75	790.79	785.49	0.4457	0.4344	0.4802	0.4503	0.3001
x2 = 0.8882	805.45	800.29	795.42	790.44	785.09	0.4464	0.3813	0.4402	0.4012	0.2999
x2 = 0.9448	805.18	799.99	795.11	790.1	784.7	0.4338	0.3142	0.3601	0.32	0.2997

CCC(C)=O [butanone] + CC(C)CO
Conditions	mass density, 293.15 K [kg/m3]	mass density, 298.15 K [kg/m3]	mass density, 303.15 K [kg/m3]	mass density, 308.15 K [kg/m3]	mass density, 313.15 K [kg/m3]	viscosity, 293.15 K [mPa·s]	viscosity, 298.15 K [mPa·s]	viscosity, 303.15 K [mPa·s]	viscosity, 308.15 K [mPa·s]	viscosity, 313.15 K [mPa·s]
x1 = 0.0684	801.9	797.93	794.21	790.04	786.54	3.138	2.611	2.24	1.913	1.625
x1 = 0.1365	802.11	798.06	794.25	790.03	786.39	2.429	2.054	1.78	1.534	1.33
x1 = 0.2044	802.32	798.18	794.29	790	786.22	1.862	1.566	1.404	1.193	1.074
x1 = 0.2721	802.52	798.29	794.32	789.98	786.06	1.426	1.206	1.104	0.9579	0.8538
x1 = 0.3395	802.72	798.41	794.36	789.95	785.89	1.111	0.9449	0.8637	0.7612	0.6894
x1 = 0.4066	802.92	798.52	794.39	789.92	785.73	0.8561	0.7513	0.676	0.6222	0.5674
x1 = 0.4735	803.13	798.63	794.42	789.89	785.56	0.7002	0.607	0.5418	0.5176	0.46
x1 = 0.5402	803.33	798.75	794.46	789.87	785.4	0.6142	0.5305	0.4663	0.4456	0.3948
x1 = 0.6066	803.54	798.87	794.49	789.85	785.23	0.538	0.4883	0.4135	0.4102	0.34
x1 = 0.6727	803.75	798.99	794.53	789.83	785.08	0.5271	0.4556	0.3743	0.3752	0.3138
x1 = 0.7387	803.97	799.12	794.58	789.82	784.92	0.5071	0.4444	0.3713	0.3573	0.2909
x1 = 0.8044	804.2	799.25	794.63	789.81	784.77	0.5079	0.4189	0.3607	0.3498	0.2754
x1 = 0.8698	804.43	799.4	794.68	789.8	784.62	0.4996	0.4217	0.3443	0.3334	0.28
x1 = 0.935	804.67	799.54	794.74	789.79	784.47	0.4722	0.3617	0.3135	0.3005	0.2769
x1 = 1	804.92	799.7	794.81	789.78	784.32	0.3956	0.2828	0.2666	0.2601	0.2545
